“Also recorded” adds a separate entry of the source.
Experiments:
Huh-7 cell = experiment: Cell viability in Huh-7 cells; format: cell-based, human; settings: Huh-7, Figure S2
Source text: However, IC50 values for other 5 fluorescent compounds were able to be determined (Supplemental dataset S2). We then measured the fluorescence of all 9 fluorescent compounds at a series of different concentrations.

[1] = test system: primary mouse hepatocytes; experiment: Cell viability of primary hepatocytes from normal mice; format: cell-based; settings: 30 μM
Experimental: Cell viability was determined by our previous method[27] using the Cell Counting Kit-8 (CCK-8, Dojindo, Japan). In human hepatocellular carcinoma cell line HepG2, cells were seeded in 96-well plate and starved for over 12 h with serum-free DMEM at 60~70% confluency, then treated with compounds or vehicle for 48 h. To determine the IC50 values of inhibitors, compounds with various concentrations were added into the 96-well plate. 10 μl CCK-8 solution was added to the culture medium and incubated at 37 °C for 1 h. The absorbance at 450 nm (A450) was detected by a plate reader. Each experiment was carried out in triplicate in three replicate wells. The IC50 values were determined by non-linear fitting of the concentration-dependent curves with the four-parameter IC50 logistic equation.
(§1) Hepatocytes were isolated from mouse liver by the two-step collagenase perfusion method. […] For imaging experiment, 1 × 10^5 cells were plated in a 35-mm glass bottom dishes or 5 × 10^4 were plated in 48-well plate for cell viability assay in DMEM supplemented with 10% FBS and antibiotics, and kept under an atmosphere of 95% air and 5% CO2 at 37 °C.

HepG2 NAD levels = experiment: Cellular NAD measurement (enzymatic cycling assay) in HepG2 cells; format: cell-based, human
Experimental: Cellular level of NAD was measured by spectrophotometric enzymatic cycling assay, as described previously. Briefly, cells were seeded in 96-well plate and starved for over 12 h with serum-free DMEM at 60~70% confluency, following by treatment with compounds or vehicle for 24 h. Cells were lysed with 50 μl of 1M HClO4 on ice for 30 min. The lysates were cleared by centrifuging at 4 °C at 18,000 × g for 5 min, and cleared lysates (40 μl) were neutralized by adding 1M K2CO3 (16 μl) and incubation on ice for 20 min. After centrifuging for 10 min, 10 μl of supernatant were mixed with reaction buffer [50 mM Tris-HCl (pH 7.5), 3% ethanol, 1.66 mM PES (phenazineethosulfate), 0.42 mM MTT (3-(4,5-dimethylthiazolyl-2)-2,5-diphenyltetrazolium bromide), 90 μg/ml ADH] in a total volume of 100 ul, and incubated at 37 °C for 40 min. The absorbance at 570 nm was determined. A blank measurement without ADH was also carried out. Each experiment was carried out in triplicate in three replicate wells

[2] = test system: primary mouse hepatocytes; experiment: Live cell fluorescence imaging in primary mouse hepatocytes (wild type vs NAMPT over expression transgenic); format: cell-based; settings: hepatocytes of NAMPT over expression transgenic vs wild type mice, 3 μM
Experimental: as §1
(§2) For imaging experiment, HepG2 cells or primary hepatocytes were seeded into 35-mm glass bottom dishes (In Vitro Scientific). The following day, compounds were added to the medium at a final concentration of 3 μM. After 30 minutes, cells were rinsed twice with PBS (pH 7.5), then incubated in fresh culture medium and imaged on a fluorescence microscope (IX-71, Olympus) with a digital camera (Olympus). After 4 hours, these cells were imaged once again. Digital images were recorded and analyzed using ImageJ.

recombinant human NAMPT = target: T1, recombinant human NAMPT (Homo sapiens, UniProt P43490); experiment: NAMPT activity assay, IC50 determination (fluorometric detection of NMN derivative); settings: molecular/biochemical assay, read-out: IC50 (NAMPT inhibition)
T1 construct: His tag (N); made in house; host or cells: E. coli BL21-CodonPlus (DE3)-RIL, pET21a+ vector
T1 sequence (P43490 whole entry): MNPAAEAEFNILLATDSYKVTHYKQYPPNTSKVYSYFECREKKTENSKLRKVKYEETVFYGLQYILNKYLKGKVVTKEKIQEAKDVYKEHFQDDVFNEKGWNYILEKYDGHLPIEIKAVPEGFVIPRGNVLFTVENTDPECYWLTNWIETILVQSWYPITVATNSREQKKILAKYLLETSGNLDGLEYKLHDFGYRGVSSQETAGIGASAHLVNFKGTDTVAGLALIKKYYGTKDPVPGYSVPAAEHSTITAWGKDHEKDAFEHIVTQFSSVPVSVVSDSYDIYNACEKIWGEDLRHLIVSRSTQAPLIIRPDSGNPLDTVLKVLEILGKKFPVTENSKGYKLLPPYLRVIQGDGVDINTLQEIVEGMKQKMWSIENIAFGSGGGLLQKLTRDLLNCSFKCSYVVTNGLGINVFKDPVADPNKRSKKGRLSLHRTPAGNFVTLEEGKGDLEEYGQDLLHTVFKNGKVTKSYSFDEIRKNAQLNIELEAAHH
Source text: Using our previously established high throughput screening (HTS) platform and recombinant human NAMPT[14][15], we performed a HTS on a chemical library containing 30000 small-molecules (Chemdiv, CA, USA). Our HTS targeting NAMPT was developed based on a fluorometric method for NAMPT activity assay by measuring the fluorescence of nicotinamide mononucleotide (NMN) derivative resulting from the NAMPT enzymatic product NMN through simple chemical reactions (Fig. 1A). […] These fluorescent and non-fluorescent compounds were further studied separately.
HTS was performed using our previously reported method. 0.5 μl stock of each compound (1 mM DMSO stock) was transferred to a 96-well PCR plate for screening. In the primary screening, 5 ng NAMPT in 20 μl reaction buffer [0.4 mM phosphoribosylpyrophosphate (PRPP, Sigma), 2 mM ATP, 0.02% BSA, 2 mM DTT, 12 mM MgCl2 and 50 mM Tris-HCl (pH = 7.5)] was added into each well, the plate was incubated at 37 °C for 5 min, then 4.5 μl substrate of NAM was added to initiate the enzyme reaction, resulting in a final concentration of 2% DMSO, 2 μg/ml NAMPT, 0.2 μM NAM and 20 μM compound. After reacting at 37 °C for 15 min, the enzyme reaction was terminated by heating at 95 °C for 1 min and cooling in an ice bath. The product of NMN was detected through the following approach: after adding 10 μl 20% acetophenone in DMSO and 10 μl 2 M KOH into each well, the mixture was vortex-mixed and kept in ice bath for 2 min. […] Finally, 85 μl mixtures in each well were transferred into a flat-bottom 96-well black plate (Greiner), and the fluorescence (F) was measured using a Tecan Infinity M200 plate reader (Tecan Group Ltd.) by setting the excitation and emission wavelength to 382 nm and 445 nm respectively. The last row of each 96-well plate includes six wells of background controls and six wells of reference controls. The relative enzyme activity (Activity%) regulated by specific compound was calculated according to equation (1): […]
To determine the IC50 of inhibitors, 0.5 μl compound stocks with various concentrations were added into 96-well plate. The plate was incubated at 37 °C for 5 min after addition of 20 μl reaction buffer containing NAMPT. […] The IC50 values were determined by non-linear fitting of the concentration-dependent curves with the four-parameter IC50 logistic equation.

HepG2 cells = experiment: Live cell fluorescence imaging of compounds in HepG2 cells; format: cell-based, human; settings: 3 μM
Experimental: NAMPT knockdown in HepG2 cells was performed by transfection of NAMPT siRNA synthesized by Shanghai GenePharma Co., Ltd (Shanghai, China). The siRNA sequence targeting NAMPT corresponded to coding regions (5′-[…]-3′, 5′-[…]-3′) of the NAMPT gene. The nonspecific siRNA oligonucleotides (synthesized by Shanghai GenePharma Co., Ltd, Shanghai, China) were used as negative controls. 10 nM of NAMPT siRNA or nonspecific siRNA were transfected into HepG2 cells with Lipofectamine RNAiMax reagent (Invitrogen, CA, USA) according to the manufacturer’s instructions. After 24 or 48 hours, transfected cells were subjected to subsequent analysis.
as §2

- IC50 (HepG2 NAD levels; Homo sapiens, HepG2, 24 hours treatment, read-out: IC50 for reducing NAD level): 0.0176 µM
- IC50 (recombinant human NAMPT): 0.17 ± 0.012 µM
SMILES: CCCn1c(=O)c(-c2ccc(C(=O)NCc3cccnc3)cc2)nc2ccccc21 [M049-0244]
- Effect on Huh-7 cell viability (Huh-7 cell): Inhibitory effects
- Inhibition of normal hepatocytes viability [1]: ~ 20%
- Decrease of cellular NAD level (HepG2 NAD levels; HepG2, 1 μM, 24 hours): ~ 80%
- Cellular fluorescence intensity with NAMPT over expression [2]: increased the cellular fluorescence intensity
- Cellular fluorescence in living HepG2 cells (HepG2 cells; 30 minutes incubation, washed): fluorescence was obviously detected within the cell; also recorded: significantly stained living HepG2 cells
- Cellular fluorescence after NAMPT knockdown (RNAi-NAMPT) (HepG2 cells; HepG2, NAMPT siRNA vs nonspecific siRNA): significantly reduced the fluoresecence

From PMC4521150, “Discovery of Novel Inhibitors and Fluorescent Probe Targeting NAMPT” (Scientific Reports, 2015)
